The values that follow come from PMC4826920 (Evidence-based Complementary and Alternative Medicine : eCAM, 2016).

Series [1] deals with T1, recombinant human MAO-A (hMAO-A) (Homo sapiens, UniProt P21397).
T1 construct: purchased Sigma-Aldrich
T1 sequence (P21397 1-527): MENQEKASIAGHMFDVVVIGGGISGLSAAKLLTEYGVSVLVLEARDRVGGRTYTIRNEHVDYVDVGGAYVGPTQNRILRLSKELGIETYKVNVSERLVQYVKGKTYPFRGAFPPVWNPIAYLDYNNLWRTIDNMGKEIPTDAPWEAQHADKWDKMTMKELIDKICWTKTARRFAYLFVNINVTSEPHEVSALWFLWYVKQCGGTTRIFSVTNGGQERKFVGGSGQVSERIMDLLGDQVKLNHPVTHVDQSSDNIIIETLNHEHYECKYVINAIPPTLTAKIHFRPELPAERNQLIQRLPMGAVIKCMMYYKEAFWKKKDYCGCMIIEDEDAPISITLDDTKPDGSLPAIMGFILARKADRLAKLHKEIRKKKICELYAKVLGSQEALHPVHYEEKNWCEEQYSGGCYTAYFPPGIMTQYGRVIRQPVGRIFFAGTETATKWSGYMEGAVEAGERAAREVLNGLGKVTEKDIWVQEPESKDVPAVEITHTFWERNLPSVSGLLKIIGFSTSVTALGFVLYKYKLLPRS
The series is described as follows: MAO-Glow luminescence assay, hMAO-A inhibition. The format is biochemical. To be noted: up to 250 μM tested. How it is done: (§1) All analyses were performed by GraphPad Prism Software 6.02 (San Diego, CA, USA). IC50 values were determined by nonlinear regression best-fit model of normalized response with variable slope. The inhibitor constant (K i) values were obtained from the competitive inhibition model. Lineweaver-Burk plot was obtained from Michaelis-Menten data. Relative selectivity (RS) folds were defined by the ratio of hMAO-A IC50 to hMAO-B IC50. The significance of the difference between two groups was determined using an unpaired t-test, between the control and treatments using one-way ANOVA followed by Dunnett's multiple comparisons tests and between two sets of data using two-way ANOVA followed by Sidak's multiple comparisons test.

Another series has as its system rat MAO. The note with it: cited from earlier work.
Series [2] concerns the target T2, recombinant human MAO-B (hMAO-B) (Homo sapiens, UniProt P27338).
T2 construct: purchased Sigma-Aldrich
T2 sequence (P27338 1-520): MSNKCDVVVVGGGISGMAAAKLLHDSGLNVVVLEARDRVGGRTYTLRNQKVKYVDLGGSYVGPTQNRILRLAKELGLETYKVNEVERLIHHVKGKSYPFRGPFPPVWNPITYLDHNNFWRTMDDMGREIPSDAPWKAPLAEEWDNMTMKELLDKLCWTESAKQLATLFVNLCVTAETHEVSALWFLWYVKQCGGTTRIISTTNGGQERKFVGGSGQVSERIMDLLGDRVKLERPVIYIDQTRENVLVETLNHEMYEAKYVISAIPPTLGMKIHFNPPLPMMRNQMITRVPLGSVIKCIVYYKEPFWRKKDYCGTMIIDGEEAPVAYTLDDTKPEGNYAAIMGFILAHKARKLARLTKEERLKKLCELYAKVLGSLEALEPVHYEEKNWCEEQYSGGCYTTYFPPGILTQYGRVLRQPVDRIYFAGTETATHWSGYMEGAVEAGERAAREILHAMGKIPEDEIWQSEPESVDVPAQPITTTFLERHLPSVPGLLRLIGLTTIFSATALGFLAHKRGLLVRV
The series is described as follows: MAO-Glow luminescence assay, hMAO-B inhibition. The format is biochemical. How it is done: as §1, with “IC50” for “All analyses were performed by GraphPad Prism Software 6.02 (San Diego, CA, USA). IC50”

The test system of a further series is bovine plasma MAO. Set-up: method as in PMID 1913999. To be noted: cited from earlier work.
Series [3] has as its target T3, hMAO-A (Homo sapiens, UniProt P21397).
T3 construct: purchased Sigma-Aldrich
T3 sequence (P21397 1-527): T1 sequence (P21397 1-527)
The experiment in a line: Michaelis-Menten kinetics (mode of inhibition), hMAO-A. The format is biochemical. On the procedure:
(§2) After 1.5 h of incubation, RLDR was added, and the luminescence signal was detected as mentioned in the hMAO-A and hMAO-B assay.
as §1

Series [4] addresses T3, hMAO-A. The series is described as follows: Recovery by dilution assay, hMAO-A. The format is biochemical. How it is done:
(§3) The microplates were then incubated for 30, 40, 50, and 60 min. RLDR was added, and luminescence was measured as mentioned above.

In series [5] the target is T4, hMAO-B (Homo sapiens, UniProt P27338).
T4 construct: purchased Sigma-Aldrich
T4 sequence (P27338 1-520): T2 sequence (P27338 1-520)
The series is described as follows: Recovery by dilution assay, hMAO-B. The format is biochemical. On the procedure: as §3

For series [6] the following is noted: oral 54 mg/day, postmenopausal women; cited from earlier work.
The target of series [7] is T4, hMAO-B. The experiment in a line: Michaelis-Menten kinetics (mode of inhibition), hMAO-B. The format is biochemical. How it is done: as §2
as §1, with “IC50” for “All analyses were performed by GraphPad Prism Software 6.02 (San Diego, CA, USA). IC50”

Setting [8] is: 40 min preincubation at 10x IC50, 100-fold dilution, vs negative control.
The mark [9] stands for this setting: 40 min preincubation at 100x IC50, 100-fold dilution, vs negative control.
Where [10] appears, read: up to 60 min at RT, maximum 100x IC50.

`O=c1c(-c2ccc(O)cc2)coc2cc(O)ccc12` [DZ, Daidzein]: in series [1], the hMAO-A inhibitory effect entry is given as “minor or partial inhibitory effect”. In the series with rat MAO, the “Rat MAO inhibition” value is on record as “no significant rat MAO inhibition”. In addition, the hMAO-B inhibitory effect entry in series [2] (up to 250 μM tested) was “minor or partial inhibitory effect”.
In the case of `O=c1c(-c2ccc(O)cc2)coc2cc(O)cc(O)c12` [GST, Genistein], the “Bovine plasma MAO inhibition” value in the series on bovine plasma MAO was “weak bovine plasma MAO inhibition”. On hMAO-A [3] (GST 5, 10, 20 μM, p = 0.10), the “Change in Vmax, hMAO-A” value is on record as “no significant change”. In addition, the “Mode of hMAO-A inhibition” value at hMAO-A [3] (Lineweaver-Burk, LDS substrate) is “competitive”. Further, the “hMAO-A residual catalytic rate after dilution to 0.1x IC50” value on hMAO-A [4] (setting [8]) was found to be 86.8%. Also, the “hMAO-A residual catalytic rate after dilution to 1x IC50” value at hMAO-A [4] (setting [9]) was 42.3%. In addition, the “Reversibility of hMAO-A inhibition” value on hMAO-A [4] (setting [10]) is “reversible inhibitor”. Moreover, the “hMAO-B potency as % of DEP potency” value in series [2] (from IC50 values) is recorded as 1.4%. Besides, at hMAO-B [5] (setting [8]), the “hMAO-B residual catalytic rate after dilution to 0.1x IC50” value worked out at 86.1%. Moreover, the “hMAO-B residual catalytic rate after dilution to 1x IC50” value on hMAO-B [5] (setting [9]) is 47.1%. Further, the “Reversibility of hMAO-B inhibition” value at hMAO-B [5] (setting [10]) is recorded as “reversible inhibitor”. For the same compound, the Steady-state level entry in [6] is “up to 1.00 μM”. Also, on hMAO-B [7] (GST 5, 10, 20 μM, p = 0.44), the “Change in Vmax, hMAO-B” value is “no significant change”. On hMAO-B [7] (Lineweaver-Burk, LDS substrate), the “Mode of hMAO-B inhibition” value is “competitive”. Further, the “hMAO-B Ki lower than hMAO-A Ki” value at hMAO-B [7] (ratio of Ki values) is listed as 3.0 fold.
